This note sets out measurements from patent publication US4681879A, “11-substituted 5H,11H-pyrrolo[2,1-c][1,4]benzoxazepines as antipsychotic and analgesic agents” (Hoechst-Roussel Pharmaceuticals Inc., priority 1985, dated 1987).

SMILES strings stand for the structures. Where a name gives a salt, the structure may show the parent alone.

What is called ED50 is the dose that gives a 50% effect, or the effect in half of the subjects.

One assay concerns apomorphine climbing. The assay is described as follows: Antipsychotic activity, climbing mice assay (apomorphine). Format: in vivo, mice (CK-1 male). The following applies: Mus musculus; ip, 30 minutes prior to apomorphine 1.5 mg/kg sc. The method, then: Antipsychotic activity is determined in the climbing mice assay by methods similar to those described by P. Protais, et al., Psychopharmacol., 50, 1 (1976) and B. Costall, Eur. J. Pharmacol., 50, 39 (1978).
The subject CK-1 male mice (23-27 grams) are group-housed under standard laboratory conditions. The mice are individually placed in wire mesh stick cages (4"×4" by 10") and are allowed one hour for adaptation and exploration of the new environment. Then apomorphine is injected subcutaneously at 1.5 mg/kg, a dose causing climbing in all subjects for 30 minutes. Compounds to be tested for antipsychotic activity are injected intraperitoneally 30 minutes prior to the apomorphine challenge at a screening dose of 10 mg/kg.
For evaluation of climbing, 3 readings are taken at 10, 20 and 30 minutes after apomorphine administration according to the following scale: […]
______________________________________
4 paws on bottom (no climbing)
2 paws on the wall (rearing)
4 paws on the wall (full climb)
Mice consistently climbing before the injection of apomorphine are discarded.
With full-developed apomorphine climbing, the animals are hanging onto the cage walls, rather motionless, over longer periods of time. By contrast, climbs due to mere motor stimulation usually last only a few seconds.
The climbing scores are individually totaled (maximum score: 6 per mouse over 3 readings) and the total score of the control group (vehicle intraperitoneally-apomorphine subcutaneously) is seet to 100%. ED50 values with 95% confidence limits, calculated by a linear regression analysis of some of the compounds of this invention are presented in Table 1.

The subject of assay [1] is 2-phenyl-1,4-benzoquinone-induced writhing. The experiment in a line: Analgesic activity, 2-phenyl-1,4-benzoquinone-induced writhing test in mice. Format: in vivo. The following applies: Mus musculus, sc; read-out: ANALGESIC ACTIVITY (Phenylquinone Writhing) ED50. From the text: Compounds of the present invention are useful as analgesic agents due to their ability to alleviate pain in mammals. […] Exptl. Biol. Med., 95, 729 (1957)].
In general terms: Writhing tests count abdominal constrictions after an irritant is injected.

With `O=[N+]([O-])c1ccc(CCN2CCC(C3Oc4ccccc4Cn4cccc43)CC2)cc1` (stereo not drawn) [11-{1-[2-(4-Nitrophenylethyl)]piperidin-4-yl}-5H,11H-pyrrolo[2,1-c][1,4]benzoxazepine], the ED50 with apomorphine climbing came out at 3.5 mg/kg; in assay [1], 4.1 mg/kg.
On to `O=C(O)C(=O)O.c1ccc(CCN2CCC(C3Oc4ccccc4Cn4cccc43)CC2)cc1` (stereo not drawn) [11-{1-[2-(Phenyl)ethyl]piperidin-4-yl}-5H,11H-pyrrolo[2,1-c][1,4]benzoxazepine oxalate], for which the ED50 in the assay on apomorphine climbing turned out to be 3.1 mg/kg.
For `COc1cccc(CCN2CCC(C3Oc4ccccc4Cn4cccc43)CC2)c1OC.O=C(O)/C=C/C(=O)O` (stereo not drawn) [11-{1-[2-(2,3-Dimethoxyphenyl)ethyl]piperidin-4-yl}-5H,11H-pyrrolo[2,1-c][1,4]benzoxazepine fumarate], the median effective dose (ED50) with apomorphine climbing is 3 mg/kg.
As for `c1ccc(OCCCN2CCC(C3Oc4ccccc4Cn4cccc43)CC2)cc1` (stereo not drawn) [11-{1-[3-(Phenoxy)propyl]piperidin-4-yl}-5H,11H-pyrrolo[2,1-c][1,4]benzoxazepine], the ED50 in the assay on apomorphine climbing was 1.2 mg/kg; in assay [1], 4.2 mg/kg.
In the assay with apomorphine climbing, `O=C(CCN1CCC(C2Oc3ccccc3Cn3cccc32)CC1)c1ccc(Cl)cc1` (stereo not drawn) [1-(4-Chlorophenyl)-3-[4-]5H,11H-pyrrolo[2,1-c][1,4]benzoxazepin-11-yl]-1-piperidinyl]-1-propanone] came in with a 50% effective dose (ED50) of 5.5 mg/kg.
On to `O=C(O)C(=O)O.O=c1[nH]c2ccccc2n1CCN1CCC(C2Oc3ccccc3Cn3cccc32)CC1` (stereo not drawn) [11-{1-[2-(1,3-Dihydro-2-oxo-2H-benzimidazol-1-yl)ethyl]piperidin-4-yl}-5H,11H-pyrrolo[2,1-c][1,4]benzoxazepine oxalate], for which the median effective dose (ED50) in the assay with apomorphine climbing is 3.2 mg/kg; in assay [1], 0.9 mg/kg.
Turning to `c1csc(CCN2CCC(C3Oc4ccccc4Cn4cccc43)CC2)c1` (stereo not drawn) [11-{1-[2-(2-Thienyl)ethyl]piperidin-4-yl}-5H,11H-pyrrolo[2,1-c][1,4benzoxazepine], the ED50 with apomorphine climbing came to 1.8 mg/kg.
With `O=C(O)C(=O)O.O=c1[nH]c2ccccc2n1CCCN1CCC(C2Oc3ccccc3Cn3cccc32)CC1` (stereo not drawn) [11-{1-[3-(1,3-Dihydro-2-oxo-2H-benzimidazol-1-yl)propyl]piperidin-4-yl}-5H,11H-pyrrolo[2,1-c][1,4]benzoxazepine oxalate], the ED50 in the assay on apomorphine climbing was determined as 0.7 mg/kg; in assay [1] it was 0.3 mg/kg.
Take `CCCCN1CCC(C2Oc3ccccc3Cn3cccc32)CC1` (stereo not drawn) [11-[(1-Butyl)piperidin-4-yl]-5H,11H-pyrrolo[2,1-c][1,4]benzoxazepine]: the results for the ED50 (in the assay on apomorphine climbing; in assay [1]) were 3.8 mg/kg and 0.4 mg/kg, respectively.
`Cc1ccc(CCN2CCC(C3Oc4ccccc4Cn4cccc43)CC2)cc1` (stereo not drawn) [11-{1-[2-(4-Methylphenyl)ethyl]piperidin-4-yl}-5H,11H-pyrrolo[2,1-c][1,4]benzoxazepine] returned an ED50 with apomorphine climbing of 1.2 mg/kg.
As to `Oc1ccc(CCN2CCC(C3Oc4ccccc4Cn4cccc43)CC2)cc1` (stereo not drawn) [11-{1-[2-(4-Hydroxyphenyl)ethyl]piperidin-4-yl}-5H,11H-pyrrolo[2,1-c][1,4]benzoxazepine], in the assay on apomorphine climbing, the ED50 amounted to 0.3 mg/kg.
For the compound `Fc1ccc2c(CCCN3CCC(C4Oc5ccccc5Cn5cccc54)CC3)noc2c1.O=C(O)C(=O)O` (stereo not drawn) [11-{1-[3-(6-Fluoro-1,2-benzisoxazol-3-yl)propyl]piperidin-4-yl}-5H,11H-pyrrolo[2,1-c][1,4]benzoxazepine oxalate], the ED50 with apomorphine climbing was 2.1 mg/kg; in assay [1], 5.1 mg/kg.
`O=C(CCN1CCC(C2Oc3ccccc3Cn3cccc32)CC1)c1ccccc1.O=C(O)C(=O)O` (stereo not drawn) [1-Phenyl-3-[4-[5H,11H-pyrrolo[2,1-c][1,4]benzoxazepin-11-yl]-1-piperidinyl]-1-propanone oxalate]: the ED50 (in the assay with apomorphine climbing; in assay [1]) was 1.6 mg/kg throughout.
The compound `Cc1[nH]c2ccccc2c1CCCN1CCC(C2Oc3ccccc3Cn3cccc32)CC1.O=C(O)C(=O)O` (stereo not drawn) [11-{1-[3-(2-Methylindol-3-yl)propyl]piperidin-4-yl}-5H,11H-pyrrolo[2,1-c][1,4]benzoxazepine oxalate] yielded an ED50 with apomorphine climbing of 2.3 mg/kg.
In the case of `CN(C)c1ccc(CCN2CCC(C3Oc4ccccc4Cn4cccc43)CC2)cc1` (stereo not drawn) [11-{1-[2-(4-Dimethylaminophenylethyl)]piperidin-4-yl}-5H,11H-pyrrolo[2,1-c][1,4]benzoxazepine], the ED50 with apomorphine climbing was 1.2 mg/kg; in assay [1], 0.4 mg/kg.
In the assay with apomorphine climbing, `COc1cccc(CCN2CCC(C3Oc4ccccc4Cn4cccc43)CC2)c1` (stereo not drawn) [11-{1-[2-(3-Methoxyphenyl)ethyl]piperidin-4-yl}-5H,11H-pyrrolo[2,1-c][1,4]benzoxazepine] gave a 50% effective dose (ED50) of 0.9 mg/kg.
On to `c1ccc(CCCN2CCC(C3Oc4ccccc4Cn4cccc43)CC2)cc1` (stereo not drawn) [11-{1-[3-(Phenyl)propyl]piperidin-4-yl}-5H,11H-pyrrolo[2,1-c][1,4[benzoxazepine oxalate], for which it took a dose of 2 mg/kg to reach the 50% effect level in the assay on apomorphine climbing (ED50).
In the case of `COc1ccc(CCN2CCC(C3Oc4ccccc4Cn4cccc43)CC2)cc1.O=C(O)C(=O)O` (stereo not drawn) [11-{1-[2-(4-Methoxyphenyl)ethyl]piperidin-4-yl}-5H,11H-pyrrolo[2,1-c][1,4]benzoxazepine oxalate], the 50% effective dose (ED50) (in the assay on apomorphine climbing; in assay [1]) was 0.3 mg/kg throughout.
In the case of `CCOc1ccc(CCN2CCC(C3Oc4ccccc4Cn4cccc43)CC2)cc1` (stereo not drawn) [11-{1-[2-(4-Ethoxyphenylethyl)]piperidin-4-yl}-5H,11H-pyrrolo[2,1-c][1,4]benzoxaxepine], the ED50 in the assay with apomorphine climbing turned out to be 1.3 mg/kg; in assay [1], 1.9 mg/kg.
For `COc1ccc(CCN2CCC(C3Oc4ccccc4Cn4cccc43)CC2)cc1OC` (stereo not drawn) [11-{1-[2-(3,4-Dimethoxyphenyl)ethyl]piperidin-4-yl}-5H,11H-pyrrolo[2,1-c][1,4]benzoxazepine] the same measures were 0.3 mg/kg and 0.1 mg/kg.
For the compound `Clc1ccc(CCN2CCC(C3Oc4ccccc4Cn4cccc43)CC2)cc1` (stereo not drawn) [11-{1-[2-(4-Chlorophenylethyl)]piperidin-4-yl}-5H,11H-pyrrolo[2,1-c][1,4]benzoxazepine], the ED50 in the assay with apomorphine climbing stood at 2.1 mg/kg.
As to `Fc1ccc(CCN2CCC(C3Oc4ccccc4Cn4cccc43)CC2)cc1.O=C(O)C(=O)O` (stereo not drawn) [11-{1-[2-(4-Fluorophenyl)ethyl]piperidin-4-yl}-5H,11H-pyrrolo[2,1-c][1,4]benzoxazepine oxalate], the 50% effect level in the assay on apomorphine climbing (ED50) was put at a dose of 3.1 mg/kg.
